Key:
[1] = target: EGFR (Homo sapiens, UniProt P00533); assay: in vitro EGFR inhibition; type: biochemical
[2] = tested on: tubulin; assay: tubulin polymerization inhibition; type: biochemical; conditions: read-out: Tubulin polymerization IC50

Sequence of EGFR (P00533 25-1210): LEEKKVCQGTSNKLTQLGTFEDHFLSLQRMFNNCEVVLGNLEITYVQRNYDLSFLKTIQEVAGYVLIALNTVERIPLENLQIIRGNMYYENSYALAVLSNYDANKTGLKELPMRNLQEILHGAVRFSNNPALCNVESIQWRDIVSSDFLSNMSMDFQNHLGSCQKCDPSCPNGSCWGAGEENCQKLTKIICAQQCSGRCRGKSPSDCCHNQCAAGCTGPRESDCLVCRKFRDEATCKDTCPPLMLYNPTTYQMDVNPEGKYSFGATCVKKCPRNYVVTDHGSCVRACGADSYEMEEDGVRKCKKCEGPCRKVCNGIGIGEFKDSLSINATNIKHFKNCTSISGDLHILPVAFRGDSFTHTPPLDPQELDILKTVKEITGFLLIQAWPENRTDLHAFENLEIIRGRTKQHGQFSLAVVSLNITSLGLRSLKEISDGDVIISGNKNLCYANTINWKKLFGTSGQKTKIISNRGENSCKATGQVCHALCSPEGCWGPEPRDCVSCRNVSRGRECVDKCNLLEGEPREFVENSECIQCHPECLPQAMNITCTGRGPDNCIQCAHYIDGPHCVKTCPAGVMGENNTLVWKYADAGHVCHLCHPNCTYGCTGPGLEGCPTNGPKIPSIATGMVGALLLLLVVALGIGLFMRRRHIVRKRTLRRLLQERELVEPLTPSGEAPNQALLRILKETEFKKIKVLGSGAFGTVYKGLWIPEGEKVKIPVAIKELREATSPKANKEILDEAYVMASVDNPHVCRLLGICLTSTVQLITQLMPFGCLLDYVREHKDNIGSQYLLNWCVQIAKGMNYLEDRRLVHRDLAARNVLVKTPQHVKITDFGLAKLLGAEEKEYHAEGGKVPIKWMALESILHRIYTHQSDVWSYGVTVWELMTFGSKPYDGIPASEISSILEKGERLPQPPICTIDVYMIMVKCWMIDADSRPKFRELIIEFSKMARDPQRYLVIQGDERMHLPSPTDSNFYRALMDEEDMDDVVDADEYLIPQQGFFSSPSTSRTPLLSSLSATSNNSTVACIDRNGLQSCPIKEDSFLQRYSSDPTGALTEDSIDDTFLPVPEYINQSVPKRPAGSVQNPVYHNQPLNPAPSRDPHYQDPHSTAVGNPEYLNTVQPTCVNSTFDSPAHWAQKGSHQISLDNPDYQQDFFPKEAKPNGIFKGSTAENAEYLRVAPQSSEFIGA

Compound	IC50 [1] [nM]	IC50 [2] [nM]
O=C1Nc2ccc(Cl)cc2/C1=C\C(=O)c1ccc(O)cc1 [4a, (E)-5-Chloro-3-(2-(4-hydroxyphenyl)-2-oxoethylidene)indolin-2-one]	100 ± 70	–
Nc1ccc(C(=O)C=C2C(=O)Nc3ccc(Cl)cc32)cc1 [4b]	50 ± 60	–
O=C1Nc2ccc(Cl)cc2C12CC(c1ccc(O)cc1)=NN2 (stereo not drawn) [5a, 5-Chloro-5′-(4-hydroxyphenyl)-2′,4′-dihydrospiro[indoline-3,3′-pyrazol]-2-one]	90 ± 50	3850 ± 90
Nc1ccc(C2=NNC3(C2)C(=O)Nc2ccc(Cl)cc23)cc1 (stereo not drawn) [5b, 5′-(4-Aminophenyl)-5-chloro-2′,4′-dihydrospiro[indoline-3,3′-pyrazol]-2-one]	70 ± 90	4350 ± 110
COc1ccc(C2=NNC3(C2)C(=O)Nc2ccc(Cl)cc23)cc1 (stereo not drawn) [5c, 5-Chloro-5′-(4-methoxyphenyl)-2′,4′-dihydrospiro[indoline-3,3′-pyrazol]-2-one]	80 ± 80	–

Second part, the compound after the results:

IC50 [1] [nM]	IC50 [2] [nM]	Compound
40 ± 90	–	O=C1Nc2ccc(Cl)cc2C12CC(c1ccc(Cl)cc1)=NN2 (stereo not drawn) [5d, 5-Chloro-5′-(4-chlorophenyl)-2′,4′-dihydrospiro[indoline-3,3′-pyrazol]-2-one]
–	4500 ± 130	Tubulin polymerization inhibitor II [reference compound]

Source: publication PMC12178155 (RSC Advances, 2025)
